According to ChEMBL document CHEMBL6078635, “Advances in diarylpyrimidines and related analogues as HIV-1 nonnucleoside reverse transcriptase inhibitors (2019-2023)” (Eur J Med Chem, 2024):

Key:
[1] = system: Human immunodeficiency virus 1; test: Antiviral activity against wild type HIV-1; type: functional, organism-based
[2] = Selectivity index, ratio of CC50 for cytotoxicity against human MT4 cells to EC50 for antiviral activity against wild type HIV-1 IIIB infected in human MT4 cells; type: toxicity, cell-based; conditions: read-out: Selectivity Index
MT4 [3] = test: Cytotoxicity against human MT4 cells assessed as reduction in cell viability after 5 days by MTT assay; type: functional; conditions: MT4, 120 h, time 5 day
[4] = system: Human immunodeficiency virus 1; test: Antiviral activity against HIV1 harboring K103N/Y181C double mutant; type: functional, organism-based
[5] = system: Human immunodeficiency virus 1; test: Antiviral activity against HIV1 harboring F227L/V106A double mutant infected in MT4 cells; type: functional, organism-based; conditions: Human immunodeficiency virus 1, MT4
[6] = system: Human immunodeficiency virus 1; test: Antiviral activity against HIV1 harboring K103N mutant infected in MT4 cells; type: functional, organism-based; conditions: Human immunodeficiency virus 1, MT4
[7] = system: Human immunodeficiency virus 1; test: Antiviral activity against HIV-1 […] mutant; type: functional, organism-based
[8] = system: Human immunodeficiency virus 1; test: Antiviral activity against HIV1 harboring Y188L mutant infected in MT4 cells; type: functional, organism-based; conditions: Human immunodeficiency virus 1, MT4
[9] = system: Human immunodeficiency virus 1; test: Antiviral activity against HIV1 harboring Y181C mutant infected in MT4 cells; type: functional, organism-based; conditions: Human immunodeficiency virus 1, MT4
[10] = system: Human immunodeficiency virus 1; test: Antiviral activity against HIV1 harboring E138K mutant infected in MT4 cells; type: functional, organism-based; conditions: Human immunodeficiency virus 1, MT4
[11] = system: Human immunodeficiency virus 1; test: Antiviral activity against wild type HIV-1 3B; type: functional, organism-based; conditions: Human immunodeficiency virus 1, 3B
[12] = Oral bioavailability in human; type: ADME, organism-based; conditions: in vivo
[13] = biological target: Human immunodeficiency virus type 1 reverse transcriptase (Human immunodeficiency virus 1, UniProt Q72547); test: Inhibition of wild type HIV-1 Reverse transcriptase
[14] = system: Human immunodeficiency virus 1; test: Antiviral activity against HIV-1 3B harboring F227L/V106A double mutant infected in MT4 cells assessed as reduction in virus induced cytopathic effect incubated for 5 days by MTT method; type: functional, organism-based; conditions: Human immunodeficiency virus 1, 3B, MT4, 120 h
[15] = system: Human immunodeficiency virus 1; test: Antiviral activity against HIV-1 3B harboring E138K mutant infected in MT4 cells assessed as reduction in virus induced cytopathic effect incubated for 5 days by MTT assay; type: functional, organism-based; conditions: Human immunodeficiency virus 1, 3B, MT4, 120 h
[16] = system: Human immunodeficiency virus 1; test: Antiviral activity against HIV-1 3B harboring L100I mutant infected in MT4 cells assessed as reduction in virus induced cytopathic effect incubated for 5 days by MTT method; type: functional, organism-based; conditions: Human immunodeficiency virus 1, 3B, MT4, 120 h
[17] = system: Human immunodeficiency virus 1; test: Antiviral activity against HIV-1 Y188L mutant infected in human MT4 cells assessed as reduction in virus induced cytopathic effect incubated for 5 days by MTT method; type: functional, organism-based; conditions: Human immunodeficiency virus 1, MT4, 120 h
[18] = system: Human immunodeficiency virus 1; test: Antiviral activity against HIV1 harboring K103N mutant infected in MT4 cells assessed as inhibition of viral growth; type: functional, organism-based; conditions: Human immunodeficiency virus 1, MT4
[19] = system: Human immunodeficiency virus 1; test: Antiviral activity against wild type HIV-1 3B infected in human MT4 cells assessed as inhibition of virus-induced cytopathic effect measured for 5 days by MTT assay; type: functional, organism-based; conditions: Human immunodeficiency virus 1, 3B, MT4, 120 h
[20] = system: Human immunodeficiency virus 1; test: Antiviral activity against NNRTI-resistant HIV-1 harboring Y181C mutant assessed as inhibition of viral growth; type: functional, organism-based
[21] = Aqueous solubility of compound at pH 7.4 incubated for 24 hrs by LC-MS/MS analysis; type: physicochemical; conditions: buffer
[22] = Lipophilicity, logP of compound; type: physicochemical; conditions: octanol/water
MOLT-4 = test: Cytotoxicity against human MOLT-4 cells assessed as reduction in cell viability by MTT assay; type: functional
[23] = Metabolic stability in human liver microsomes assessed as half life measured upto 120 mins by LC-MS/MS analysis; type: ADME, Microsome
[24] = Metabolic stability in human liver microsomes assessed as intrinsic clearance measured for 60 mins by LC-MS/MS analysis; type: ADME, Microsome; conditions: read-out: CLH
[25] = system: Human immunodeficiency virus 1; test: Antiviral activity against HIV-1 3B infected in human MT4 cells assessed as inhibition of viral replication incubated for 5 days by MTT assay; type: functional, organism-based; conditions: Human immunodeficiency virus 1, 3B, MT4, 120 h
MT4 [26] = test: Cytotoxicity against human MT4 cells assessed as reduction in cell viability; type: functional
MT2 = test: Cytotoxicity against human MT2 cells; type: functional

N#Cc1ccc(Nc2nccc(Oc3ccc4cc(C#N)ccc4c3Br)n2)cc1
EC50 [1]: 2 nM | selectivity ratio [2]: 181000 | CC50 (MT4 [3]): 283000 nM | EC50 [4]: 240 nM

COc1cc2cc(C#N)ccc2c(OC)c1Oc1ccnc(Nc2ccc(C#N)cc2)n1
EC50 [1]: 5 nM | selectivity ratio [2]: > 25000 | CC50 (MT4 [3]): > 118000 nM | EC50 [4]: 160 nM

Cc1cc(C#N)cc(C)c1Oc1ccnc(S(=O)(=O)CC(=O)Nc2ccc(C#N)cc2)n1
EC50 [1]: 2 nM | selectivity ratio [2]: > 3540 | CC50 (MT4 [3]): > 6010 nM

Cc1cc(-c2ccc(C#N)cc2)cc(C)c1Nc1ccnc(Nc2ccc(C#N)cc2)n1
selectivity ratio [2]: 2060 | CC50 (MT4 [3]): 2080 nM

N#Cc1ccc(Nc2nccc(Oc3ccc4ccccc4c3Br)n2)cc1
EC50 [1]: 2.4 nM | selectivity ratio [2]: 65600 | CC50 (MT4 [3]): 154000 nM | EC50 [4]: 6750 nM

Cc1cc(C(C#N)c2ccccc2F)nc(Nc2ccc(C#N)cc2)n1 (stereo not given)
EC50 [1]: 1.8 nM

Cc1cc(C#Cc2cccnc2)cc(C)c1Oc1ccnc(Nc2ccc(C#N)cc2)n1
EC50 [5]: 209 nM | EC50 [1]: 3 nM | EC50 [6]: 10 nM | EC50 [7]: 76 nM | CC50 (MT4 [3]): 3480 nM | EC50 [4]: 935 nM

N#Cc1ccc(Nc2nccc(/C(=N/O)c3ccc(-c4ccc(F)cc4)cc3F)n2)cc1
EC50 [5]: 4600 nM | EC50 [1]: 12 nM | EC50 [6]: 500 nM | EC50 [7]: 400 nM | CC50 (MT4 [3]): > 292000 nM | EC50 [4]: 22700 nM | EC50 [8]: 3430 nM | EC50 [9]: 182 nM | EC50 [10]: 170 nM

Cc1cc(/C=C/C#N)cc([N+](=O)[O-])c1Nc1nc(Nc2ccc(C#N)cc2)nc2ccccc12
EC50 [11]: 3.4 nM | bioavailability [12]: 16.5%

Cc1cc(/C=C/C#N)cc([N+](=O)[O-])c1Nc1nc(Nc2ccc(C#N)cc2)nc2ccc(Cl)cc12
EC50 [11]: 10.6 nM | bioavailability [12]: 16%

N#Cc1ccc(Nc2ncc(C(N)=O)c(Oc3ccc4cc(C#N)ccc4c3)n2)cc1
EC50 [1]: 3.7 nM | selectivity ratio [2]: 84700 | CC50 (MT4 [3]): > 307000 nM | EC50 [10]: 11 nM

Cc1cc(-c2ccc(C#N)cc2)cc(C)c1Oc1ccnc(S(=O)(=O)CC(=O)Nc2ccc(C#N)cc2)n1
EC50 [5]: 642 nM | EC50 [1]: 6 nM | selectivity ratio [2]: 4070 | EC50 [6]: 6 nM | EC50 [7]: 8 nM | CC50 (MT4 [3]): 24400 nM | EC50 [4]: 226 nM | EC50 [8]: 122 nM | IC50 [13]: 142 nM | EC50 [9]: 26 nM | EC50 [10]: 26 nM

COc1ccc(-c2cc(C)c(Oc3nc(NC4CCN(Cc5ccc(C(N)=O)cc5)CC4)nc4ccsc34)c(C)c2)cc1
EC50 [14]: 297 nM | EC50 [15]: 149 nM | EC50 [16]: 268 nM | EC50 [17]: 110 nM | EC50 [4]: 1120 nM | EC50 [18]: 58.4 nM | EC50 [19]: 52.6 nM | EC50 [20]: 158 nM

Cc1cc(-c2ccc(N(C)C)cc2)cc(C)c1Oc1nc(NC2CCN(Cc3ccc(C(N)=O)cc3)CC2)nc2ccsc12
EC50 [14]: 1250 nM | EC50 [15]: 245 nM | EC50 [16]: 1120 nM | EC50 [17]: 556 nM | EC50 [4]: > 23500 nM | EC50 [18]: 173 nM | EC50 [19]: 176 nM | EC50 [20]: 585 nM

N#Cc1ccc(Nc2nc(N)cc(Oc3c(F)cc(-c4ccc(C#N)cc4)cc3F)n2)cc1
EC50 [1]: 1.8 nM | EC50 [6]: 2 nM | EC50 [7]: 16 nM | solubility at 24 h [21]: < 1 µg/mL | EC50 [4]: 10 nM | EC50 [8]: 1050 nM | EC50 [9]: 32 nM | EC50 [10]: 8 nM

N#Cc1ccc(Nc2nccc(Oc3ccc4ccccc4c3)n2)cc1
logP [22]: 5.36

Cc1cc(/C=C/C#N)cc(C)c1Oc1nc(NC2CCN(Cc3ccc(B(O)O)cc3)CC2)nc2c1COC2
EC50 [5]: 43.2 nM | EC50 [1]: 7.23 nM | EC50 [6]: 7.19 nM | EC50 [7]: 9.85 nM | CC50 (MT4 [3]): 25600 nM | EC50 [4]: 77.9 nM | EC50 [8]: 39.9 nM | EC50 [9]: 19.7 nM | EC50 [10]: 17.3 nM

Cc1cc(-c2ccc(F)cc2)cc(C)c1Oc1nc(NC2CCN(Cc3ccc(C(N)=O)cc3)CC2)nc2ccsc12
EC50 [14]: 56.6 nM | EC50 [15]: 34.8 nM | EC50 [16]: 61.1 nM | EC50 [17]: 51.4 nM | EC50 [4]: 575 nM | EC50 [18]: 11.7 nM | EC50 [19]: 12.8 nM | EC50 [20]: 36.1 nM

N#Cc1ccc(Nc2ncc(CO)c(Nc3c(F)cc(-c4ccc(C#N)cc4)cc3F)n2)cc1
EC50 [1]: 0.9 nM | CC50 (MOLT-4): 225000 nM | half-life [23]: 45.9 h | EC50 [7]: 1.9 nM | CLint scaled [24]: 0.763 mL/min/kg | EC50 [8]: 162 nM | EC50 [9]: 8.2 nM | EC50 [10]: 3.5 nM

Cc1cc(-c2ccsc2)cc(C)c1Oc1nc(NC2CCN(Cc3ccc(C(N)=O)cc3)CC2)nc2ccsc12
EC50 [14]: 854 nM | EC50 [15]: 739 nM | EC50 [16]: 925 nM | EC50 [17]: 628 nM | EC50 [4]: 4520 nM | EC50 [18]: 171 nM | EC50 [19]: 240 nM | EC50 [20]: 741 nM

Cc1cc(-c2ccoc2)cc(C)c1Oc1nc(NC2CCN(Cc3ccc(C(N)=O)cc3)CC2)nc2ccsc12
EC50 [14]: 525 nM | EC50 [15]: 177 nM | EC50 [16]: 262 nM | EC50 [17]: 222 nM | EC50 [4]: 813 nM | EC50 [18]: 74.8 nM | EC50 [19]: 57.5 nM | EC50 [20]: 180 nM

Cc1cc(-c2ccc(C#N)cc2)cc(C)c1Oc1nc(NC2CCN(Cc3ccc(C(N)=O)cc3)CC2)nc2ccsc12
EC50 [14]: 97.2 nM | EC50 [15]: 23.2 nM | EC50 [16]: 10.5 nM | EC50 [17]: 23.9 nM | EC50 [4]: 125 nM | EC50 [18]: 6.02 nM | EC50 [19]: 9.93 nM | EC50 [20]: 18.9 nM

N#Cc1ccc(Nc2nccc(C(C#N)c3ccc(-c4ccc(C#N)cc4)c(F)c3)n2)cc1 (stereo not given)
EC50 [5]: > 25600 nM | EC50 [25]: 20 nM | EC50 [6]: 900 nM | CC50 (MT4 [26]): 36400 nM | EC50 [7]: 1210 nM | EC50 [4]: > 36500 nM | EC50 [8]: 9810 nM | EC50 [9]: 870 nM | EC50 [10]: 170 nM

Cc1cc(C#CC2CCN(Cc3ccncc3)CC2)cc(C)c1Oc1ccnc(Nc2ccc(C#N)cc2)n1
EC50 [1]: 19 nM | selectivity ratio [2]: 101 | CC50 (MT2): 192000 nM | EC50 [6]: 50 nM | EC50 [10]: 190 nM

COC(=O)n1ncc(-c2cc(C)c(Oc3ccnc(Nc4ccc(C#N)cc4)n3)c(C)c2)n1
EC50 [1]: 13 nM | CC50 (MT2): > 242000 nM | EC50 [6]: 22 nM | EC50 [10]: 160 nM

N#Cc1ccc(Nc2nccc(Oc3ccc4cccnc4c3Br)n2)cc1
CC50 (MT2): > 299000 nM | IC50 [13]: 11 nM

Cc1cc(-c2ccc(C#N)cc2)cc(C)c1Oc1nc(NC2CCN(Cc3ccc(S(N)(=O)=O)cc3)CC2)nc2ccsc12
EC50 [14]: 59.9 nM | EC50 [15]: 44.4 nM | EC50 [16]: 27.4 nM | EC50 [17]: 53.6 nM | EC50 [4]: 103 nM | EC50 [18]: 13.2 nM | EC50 [19]: 17 nM | EC50 [20]: 30.8 nM

Cc1cc(/C=C/C#N)cc(C)c1Nc1ccnc(Nc2ccc(C#N)cc2)n1 [RILPIVIRINE]
CC50 (MT4 [3]): > 3980 nM
